One block for each compound: values may come before it.
Experiments:
immature mouse uterus [1] = assay: oestrogenic effect, uterus weight of immature mice; assay type: in vivo; conditions: for estrogenic effect of their own (in words): up to 5 mg/kg
Description: (§1) The oestrogen-antiestrogen (progesterone) effect of the new compounds in vivo was determined as follows: (1) The oestrogenic properties were determined by administering the new compounds, suspended in sesame oil, subcutaneously to 21 days old immature mice on three consecutive days. The mice were killed on the fourth day and the uterus was weighed. […] The weight correlates with the oestrogenic effect of the compound tested. […] In this case, the ability of the molecules to inhibit oestrogen-induced uterus weight increase was also investigated.

[2] = tested on: estradiol induced weight increase in immature mouse uterus; assay: antiestrogenic effect, inhibition of oestrogen-induced uterus weight increase in immature mice; assay type: in vivo; conditions: for effect with estradiol (in words) / reduction in the weights of mice uterus, with estradiol: with estradiol 0.05 mg/kg; for inhibition of estradiol-induced uterus weight increase / inhibition of estradiol induced effect in mouse uterus / inhibition of estradiol-induced uterus weight increase (in words): 5 mg/kg; for inhibition of estradiol-induced uterus weight increase / inhibition of estradiol-induced uterus weight increase (in words): estradiol 5 μg/kg; for anti-estrogenic effect (in words): immature mouse uterus
Description: as §1

[3] = tested on: MCF-7 cell line (human mammary adenocarcinoma); assay: anti-tumour effect in vitro, growth of MCF-7 cell line (bioluminescence assay, intracellular ATP); assay type: cell-based; conditions: read-out: Antitumour effect against MCF-7 cell line (IC50 = concentration of compound where 50% inhibition of cell growth could be seen)
Description: The anti-tumour effect was studied in vitro as follows:
The amount of living cells after 4 h, 24 h and 48 h incubations were determined by bioluminescence assay (intracellular ATP determination).
inhibition of cell growth could be seen.

immature mouse uterus [4] = assay: progestanic effect, uterus weight of immature mice (alone or with medroxyprogesterone acetate); assay type: in vivo; set-up: reduction in the weight of a mouse uterus, given alone / reduction in the weight of uterus with medroxyprogesterone / reduction in the weights of mice uterus, given alone: concentration or dose not given beside the values
oestrogen receptors = biological target: T1, oestrogen receptors (Rattus norvegicus, UniProt P06211); assay: affinity for oestrogen receptors, competition with 3H-17-β-estradiol in rat uterus cytosol (dextran-charcoal method); assay type: binding; conditions: read-out: Estrogen receptor affinity (concentration of compound where 50% competition (inhibition) with 3H-estradiol occurred)
T1 construct: rat uterus cytosol preparation; from tissue; host or cells: rat uterus cytosol
T1 sequence (P06211 1-600): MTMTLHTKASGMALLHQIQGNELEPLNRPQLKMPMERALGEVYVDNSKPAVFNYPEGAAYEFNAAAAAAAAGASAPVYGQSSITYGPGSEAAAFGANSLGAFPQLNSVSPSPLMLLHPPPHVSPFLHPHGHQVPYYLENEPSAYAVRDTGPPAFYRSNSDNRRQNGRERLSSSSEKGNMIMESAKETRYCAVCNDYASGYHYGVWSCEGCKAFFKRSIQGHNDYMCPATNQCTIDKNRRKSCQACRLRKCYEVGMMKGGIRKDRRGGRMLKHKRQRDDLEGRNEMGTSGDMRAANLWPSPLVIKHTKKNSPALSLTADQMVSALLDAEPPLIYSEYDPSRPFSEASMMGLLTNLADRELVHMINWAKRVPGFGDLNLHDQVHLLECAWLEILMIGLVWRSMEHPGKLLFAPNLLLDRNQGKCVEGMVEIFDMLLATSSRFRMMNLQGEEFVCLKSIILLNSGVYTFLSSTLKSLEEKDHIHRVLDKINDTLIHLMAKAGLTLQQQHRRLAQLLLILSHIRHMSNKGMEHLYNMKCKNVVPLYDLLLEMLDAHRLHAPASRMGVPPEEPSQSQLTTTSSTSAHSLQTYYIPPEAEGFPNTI
Description: The affinity of the new compounds for oestrogen receptors was determined by the ability to compete with ^3 H-labelled 17-β-estradiol in rat uterus cytosol preparation. After incubation, receptor-bound and receptor-unbound ligands were separated by a known dextrancharcoal method.

[5] = tested on: DMBA-induced rat mammary adenocarcinomas; assay: antitumour effect in vivo against DMBA-induced rat mammary adenocarcinoma; conditions: for growth rate of the tumours (in words) / amount of new tumours (in words): rat, in vivo
Description: The anti-tumour effect was investigated in vivo against DMBA-induced rat mammary adenocarcinomas, transplantable mammary and ovarial adenocarcinoma and transplantable prostatic squamous cell carcinoma by the following methods:
Mammary adenocarcinomas were induced by DMBA in 35-40 days old female rats. […] Tumour size and numbers of tumours were evaluated twice a week. Tumour sizes in the control group, treated with solvent, were compared with the test groups.
The size refers to the width×height of the tumour. The growth rate is a difference between sizes compared with that of the first day of the treatment.

[6] = with medroxyprogesterone 0.06 mg/kg

Compound: CN(C)CCOc1ccc(/C(=C(\CCCl)c2ccccc2)c2ccccc2)cc1 [Compound 18, 4-chloro-1,2-diphenyl-1-[4-[2-(N,N-dimethylamino)ethoxy]phenyl]-1-butene]
effect given alone: estrogenic (in words) (immature mouse uterus [1]): estrogenic
increase in the weights of mice uterus, given alone (immature mouse uterus [1]): 20%
effect with estradiol (in words) [2]: not anti-
reduction in the weights of mice uterus, with estradiol [2]: < 10%
IC50 [3]: 1 to 5 µM
effect with medroxyprogesterone (in words) (immature mouse uterus [4]; [6]): no effect

Compound: CC(=O)O[C@]1(C(C)=O)CC[C@H]2[C@@H]3C[C@H](C)C4=CC(=O)CC[C@]4(C)[C@H]3CC[C@@]21C [Medroxyprogesterone acetate, reference compound]
inhibition in the weight of immature mouse uterus (immature mouse uterus [4]; positive control): up to 40%

Compound: OCCC(c1ccc(O)cc1)C(O)(c1ccccc1)c1ccc(O)cc1 (stereo not drawn) [Compound 8, 1-phenyl-1,2-bis(4-hydroxyphenyl)-butane-1,4-diol]
IC50 (oestrogen receptors): 1 to 10 µM

Compound: ClCC/C(=C(/c1ccccc1)c1ccc(OCCN2CCCC2)cc1)c1ccccc1 [Compound 26, 4-chloro-1,2-diphenyl-1-[4-[2-(1-pyrrolidinyl)-ethoxy]phenyl]-1-butene]
increase in uterus weight (immature mouse uterus [1]; 5 mg/kg): ≤ 30%
inhibition of estradiol-induced uterus weight increase [2]: less than 33%
IC50 [3]: 1 to 5 µM
growth rate of the tumours (in words) [5]: only the growth rate of the tumours was reduced

Compound: CN(C)CCOc1ccc(/C(=C(/CCO)c2ccccc2)c2ccccc2)cc1 [Compound 20, 1,2-diphenyl-1-[4-[2-(N,N-dimethylamino)ethoxy]phenyl]-1-buten-4-ol]
increase in uterus weight (immature mouse uterus [1]; 5 mg/kg): less than 30%
increase in uterus weight (in words) (immature mouse uterus [1]; 5 mg/kg): statistically significant increase in uterus weight
inhibition of estradiol-induced uterus weight increase [2]: less than 33%
inhibition of estradiol-induced uterus weight increase (in words) [2]: inhibited the uterus weight increase in a statistically significant manner
growth rate of the tumours (in words) [5]: only the growth rate of the tumours was reduced

Compound: OCC[C@H](c1ccccc1)[C@@](O)(c1ccccc1)c1ccc(O)cc1 (relative stereo) [Compound 1, 1,2-diphenyl-1-(4-hydroxyphenyl)-butane-1,4-diol]
IC50 (oestrogen receptors): 1 to 10 µM

Compound: Oc1ccc(C2CCOC2(c2ccccc2)c2ccc(O)cc2)cc1 (stereo not drawn) [Compound 9, 2-phenyl-2,3-bis(4-hydroxyphenyl)-tetrahydrofuran]
effect given alone: estrogenic (in words) (immature mouse uterus [1]): estrogenic
increase in the weights of mice uterus, given alone (immature mouse uterus [1]): 50%
effect with estradiol (in words) [2]: not anti-
reduction in the weights of mice uterus, with estradiol [2]: < 10%
IC50 (oestrogen receptors): 0.1 to 1 µM

Compound: CN(C)CCOc1ccc([C@](O)(c2ccccc2)[C@H](CCO)c2ccccc2)cc1 (relative stereo) [Compound 17, 1,2-diphenyl-1-[4-[2-(N,N-dimethylamino)-ethoxy]phenyl]butane-1,4-diol]
estrogenic effect of their own (in words) (immature mouse uterus [1]): no estrogenic effect of their own
IC50 (oestrogen receptors): 10 to 100 µM

Compound: ClCC[C@H](c1ccccc1)[C@H](c1ccccc1)c1ccc(OCCN2CCCC2)cc1 (relative stereo) [Compound 28, 4-chloro-1,2-diphenyl-1-[4-[2-(1-pyrrolidinyl)-ethoxy]phenyl]-butane]
increase in uterus weight (immature mouse uterus [1]; 5 mg/kg): ≤ 55%
inhibition of estradiol-induced uterus weight increase [2]: 68-100%
IC50 [3]: 5 to 10 µM
amount of new tumours (in words) [5]: the amount of new tumours decreased
growth rate of the tumours (in words) [5]: the growth rate of the tumours decreased

Compound: CN(C)CCOc1ccc([C@@]2(c3ccccc3)OCC[C@@H]2c2ccccc2)cc1 (relative stereo) [Compound 16, 2,3-diphenyl-2-[4-[2-(N,N-dimethylamino)-ethoxy]phenyl]-tetrahydrofuran]
estrogenic effect of their own (in words) (immature mouse uterus [1]): no estrogenic effect of their own
IC50 [3]: 5 to 10 µM
IC50 (oestrogen receptors): 10 to 100 µM

Compound: ClCC/C(=C(\c1ccccc1)c1ccc(OCCN2CCCC2)cc1)c1ccccc1 [Compound 25, 4-chloro-1,2-diphenyl-1-[4-[2-(1-pyrrolidinyl)-ethoxy]phenyl]-1-butene]
increase in uterus weight (immature mouse uterus [1]; 5 mg/kg): ≤ 55%
inhibition of estradiol-induced uterus weight increase [2]: 68-100%
IC50 [3]: < 5 µM
amount of new tumours (in words) [5]: the amount of new tumours decreased
growth rate of the tumours (in words) [5]: the growth rate of the tumours decreased

Compound: CCN(CC)CCOc1ccc(/C(=C(/CCCl)c2ccccc2)c2ccccc2)cc1 [Compound 24, 4-chloro-1,2-diphenyl-1-[4-[2-(N,N-diethylamino)ethoxy]phenyl]-1-butene]
increase in uterus weight (immature mouse uterus [1]; 5 mg/kg): ≤ 55%
inhibition of estradiol-induced uterus weight increase [2]: less than 67%
IC50 [3]: 1 to 5 µM
growth rate of the tumours (in words) [5]: only the growth rate of the tumours was reduced

Compound: CC(=O)OCC/C(=C(\c1ccccc1)c1ccc(OCCN(C)C)cc1)c1ccccc1 [Compound 19]
increase in uterus weight (immature mouse uterus [1]; 5 mg/kg): ≤ 30%
inhibition of estradiol-induced uterus weight increase (in words) [2]: did not inhibit
IC50 [3]: 1 to 5 µM
growth rate of the tumours (in words) [5]: only the growth rate of the tumours was reduced

Compound: ClCC[C@@H](c1ccccc1)[C@H](c1ccccc1)c1ccc(OCCN2CCCC2)cc1 (relative stereo) [Compound 27, 4-chloro-1,2-diphenyl-1-[4-[2-(1-pyrrolidinyl)-ethoxy]phenyl]-butane]
increase in uterus weight (immature mouse uterus [1]; 5 mg/kg): ≤ 55%
inhibition of estradiol-induced uterus weight increase [2]: less than 33%
IC50 [3]: 1 to 5 µM
amount of new tumours (in words) [5]: the amount of new tumours decreased
growth rate of the tumours (in words) [5]: the growth rate of the tumours decreased

Now from value to compound, other results behind:

IC50 (oestrogen receptors): 1 to 10 µM
Compound: OCC/C(=C(\c1ccccc1)c1ccc(O)cc1)c1ccccc1 [Compound 11, 1,2-diphenyl-1-(4-hydroxyphenyl)-1-buten-4-ol]
estrogenic effect of their own (in words) (immature mouse uterus [1]): no estrogenic effect of their own
inhibition of estradiol induced effect in mouse uterus [2]: 31%
effect given alone: antiestrogenic (in words) ([2]; given alone): anti-
anti-estrogenic effect (in words) [2]: possessed anti-estrogenic effects
effect with estradiol (in words) [2]: anti-
reduction in the weights of mice uterus, with estradiol [2]: 31%
reduction in the weight of a mouse uterus, given alone (immature mouse uterus [4]; given alone): 56%
reduction in the weights of mice uterus, given alone (immature mouse uterus [4]; given alone, Table 2A): 56%
interaction with medroxyprogesterone (in words) (immature mouse uterus [4]; with medroxyprogesterone): synergistic effect with medroxyprogesterone
effect with medroxyprogesterone (in words) (immature mouse uterus [4]; [6]): no inhibition
reduction in the weights of mice uterus with medroxyprogesterone, compared to control (immature mouse uterus [4]; [6]): 40%

IC50 (oestrogen receptors): 0.1 to 10 µM
Compound: OCCCC(=C(c1ccccc1)c1ccc(O)cc1)c1ccccc1 [Compound 6, 1,2-diphenyl-1-(4-hydroxyphenyl)-1-penten-5-ol]

IC50 [3]: 1 to 5 µM
IC50 (oestrogen receptors): 10 to 100 µM
Compound: CN(C)CCOc1ccc(/C(=C(\CCO)c2ccccc2)c2ccccc2)cc1 [Compound 12, 1,2-diphenyl-1-[4-[2-(N,N-dimethylamino)-ethoxy]phenyl]-1-buten-4-ol]
antitumour effect against DMBA-induced mammary cancer (in words) ([5]; compared with compound 7): Antitumour effect less than that of compound 7

IC50 [3]: 5 to 10 µM
Compound: OCCC/C(=C(/c1ccccc1)c1ccc(O)cc1)c1ccccc1 [6, (E)-isomer]

IC50 [3]: 5 to 10 µM
IC50 (oestrogen receptors): 1 to 10 µM
Compound: Oc1ccc(/C(=C(/CCCl)c2ccccc2)c2ccccc2)cc1 [Compound 15, 4-chloro-1,2-diphenyl-1-(4-hydroxyphenyl)-1-butene]
effect given alone: estrogenic (in words) (immature mouse uterus [1]): estrogenic
increase in the weights of mice uterus, given alone (immature mouse uterus [1]): 20%
inhibition of estradiol induced effect in mouse uterus [2]: 25%
anti-estrogenic effect (in words) [2]: possessed anti-estrogenic effects
effect with estradiol (in words) [2]: anti-
reduction in the weights of mice uterus, with estradiol [2]: 25%

IC50 (oestrogen receptors): 0.1 to 1 µM
Compound: OCC/C(=C(/c1ccccc1)c1ccc(O)cc1)c1ccccc1 [Compound 10, 1,2-diphenyl-1-(4-hydroxypheny)-1-buten-4-ol]

IC50 (oestrogen receptors): 1 to 10 µM
Compound: COc1ccc(C(=C(CCO)c2ccccc2)c2ccccc2)cc1 [Compound 3, 1,2-diphenyl-1-(4-methoxyphenyl)-1-buten-4-ol]
